Laboratory results as given in DBAASP.
Converted amounts (≈) assume the structure as drawn.

Assays:
Experiment in all cases: ≥ marks a high value that may be exact or a test limit, other limits are often not marked, values filed in µg/mL are converted to µM
[1] = test system: Acinetobacter baumannii ICB 14067
[2] = test system: Pseudomonas aeruginosa Pa4216
[3] = test system: Proteus vulgaris ICB 9081
[4] = test system: Acinetobacter baumannii Ab5753
[5] = test system: Klebsiella pneumoniae DSM 681
[6] = test system: Shigella dysenteriae CMCC 51252
[7] = test system: Escherichia coli JJ2487
[8] = test system: Salmonella enterica subsp. enterica serovar Enteritidis MH91989
[9] = test system: Klebsiella pneumoniae
[10] = test system: Klebsiella pneumoniae ATCC 27799
[11] = test system: Escherichia coli O157:H7
[12] = test system: Escherichia coli BL21AI
[13] = test system: Escherichia coli ATCC 25922 ΔsbmA
[14] = test system: Escherichia coli UB1005
[15] = test system: Escherichia coli ATCC 25922
[16] = test system: Escherichia coli MC1061

MIC [1]: 0.418 µM (≈ 1 µg/mL)
MIC [2]: ≥ 53.5 µM
MIC [3]: 1.67 µM (≈ 4 µg/mL)
MIC [4]: ≥ 53.5 µM
MIC [5]: 1.67 µM (≈ 4 µg/mL)
MIC [6]: 8 µM (≈ 19.1 µg/mL)
MIC [7]: 0.251 µM (≈ 0.6 µg/mL)
MIC [8]: 0.251 µM (≈ 0.6 µg/mL)
MIC [9]: 3.35 µM (≈ 8 µg/mL)
MIC [10]: 0.418 µM (≈ 1 µg/mL)
MIC [11]: 1.31 µM (≈ 3.14 µg/mL)
MIC [12]: 1.67 µM (≈ 4 µg/mL)
MIC [13]: 16 µM (≈ 38.2 µg/mL)
MIC [14]: 0.544 µM (≈ 1.3 µg/mL)
MIC [15]: 8 µM (≈ 19.1 µg/mL)
MIC [16]: 0.126 µM (≈ 0.3 µg/mL)
SMILES: CC[C@H](C)[C@H](NC(=O)[C@H](CCCN=C(N)N)NC(=O)[C@H](CCCN=C(N)N)NC(=O)[C@@H]1CCCN1C(=O)[C@@H]1CCCN1C(=O)[C@H](CCCN=C(N)N)NC(=O)[C@@H]1CCCN1C(=O)[C@H](CCCN=C(N)N)NC(=O)[C@@H]1CCCN1C(=O)[C@H](CC(C)C)NC(=O)[C@H](Cc1ccc(O)cc1)NC(=O)[C@@H]1CCCN1C(=O)[C@@H]1CCCN1C(=O)[C@H](CCCCN)NC(=O)[C@H](CC(=O)O)NC(=O)[C@@H](N)C(C)C)C(=O)N[C@@H](Cc1ccc(O)cc1)C(=O)N[C@@H](CC(N)=O)C(=O)N[C@@H](CCCN=C(N)N)C(N)=O [VDKPPYLPRPRPPRRIYNR]
